Laboratory results: publication PMC11053168, “Agonist-selective activation of individual G-proteins by muscarinic receptors” (Scientific Reports, 2024)
Read-outs that look alike come from different tables or passages of the source.

What was measured:
M1 muscarinic receptor = molecular target: T1, M1 muscarinic receptor (Homo sapiens, UniProt P11229); assay: [3H]NMS competition binding, membranes from CHO cells expressing M1; conditions: competition with [3H]NMS, mean ± SD, three experiments, read-out: Binding affinity, negative logarithm of Ki (converted)
T1 construct: membranes
T1 sequence (P11229 1-460): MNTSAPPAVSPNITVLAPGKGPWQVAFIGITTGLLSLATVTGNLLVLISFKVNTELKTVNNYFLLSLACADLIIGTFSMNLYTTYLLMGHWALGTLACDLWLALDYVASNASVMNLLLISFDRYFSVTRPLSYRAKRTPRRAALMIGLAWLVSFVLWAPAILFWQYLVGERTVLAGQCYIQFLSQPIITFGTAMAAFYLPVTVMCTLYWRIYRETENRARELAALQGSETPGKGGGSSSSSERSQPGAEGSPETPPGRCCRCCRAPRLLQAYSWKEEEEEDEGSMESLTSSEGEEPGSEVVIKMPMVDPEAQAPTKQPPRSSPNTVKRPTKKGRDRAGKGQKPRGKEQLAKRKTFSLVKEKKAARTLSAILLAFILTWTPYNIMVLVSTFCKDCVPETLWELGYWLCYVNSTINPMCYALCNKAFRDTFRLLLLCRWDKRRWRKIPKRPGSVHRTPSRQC
Description: (§1) Cells were cultured as described previously by Randakova et al.[33]. […] The medium was supplemented with 5 mM butyrate for the last 24 h of culture to increase receptor expression. Cells were washed with (phosphate-buffered saline (PBS), mechanically harvested by scraper and centrifugated 1000 × g for 5 min. Cell pellets were kept at − 80 °C.
(§2) Membranes were prepared as described previously by Randakova et al.[33]. Cells harvested from twenty 100 mm petri dishes (CHO) or 30 ml of cell suspension (Sf9) were suspended in 20 ml of ice-cold incubation medium (100 mM NaCl, 20 mM Na-HEPES, 10 mM MgCl2, pH 7.4) supplemented with 10 mM EDTA and homogenized on ice by two 30‐s strokes using a Polytron homogenizer (Ultra-Turrax; Janke & Kunkel GmbH & Co. KG, IKA-Labortechnik, Staufen, Germany) with a 30 s pause between strokes. Cell homogenates were centrifuged for 5 min at 1000×g to remove whole cells and cell nuclei. The resulting supernatants were centrifuged for 30 min at 30,000×g. Pellets were suspended in a fresh incubation medium, incubated on ice for 30 min, and centrifuged again. The resulting membrane pellets were kept at − 80 °C until assayed within 10 weeks.
(§3) Non-specific binding was determined in the presence of 10 μM unlabelled atropine. Incubations were terminated by filtration through filtration plates multiscreen 96 well Harvest (Merck Millipore) using a Brandel cell harvester (Brandel, Gaithersburg, MD, USA). Filtration plates were dried in a microwave oven, and then 40 μl of liquid scintillator Rotiscint eco plus (Roth) was added. The filtration plates were counted in the Microbeta scintillation counter (PerkinElmer). […] The inhibition constant KI was calculated according to Eq. (2).
(§4) Inhibition constants KI were calculated according to Eq. (2).2 KI=IC50/1+D/KD where IC50 is calculated according to Eq.

M3 muscarinic receptor = molecular target: T2, M3 muscarinic receptor (Homo sapiens, UniProt P20309); assay: [3H]NMS competition binding, membranes from CHO cells expressing M3; conditions: competition with [3H]NMS, mean ± SD, three experiments, read-out: Binding affinity, negative logarithm of Ki (converted)
T2 construct: membranes
Description: as §1, §2, §3, §4

M5 muscarinic receptor = molecular target: T3, M5 muscarinic receptor (Homo sapiens, UniProt P08912); assay: [3H]NMS competition binding, membranes from CHO cells expressing M5
T3 construct: membranes
T3 sequence (P08912 1-532): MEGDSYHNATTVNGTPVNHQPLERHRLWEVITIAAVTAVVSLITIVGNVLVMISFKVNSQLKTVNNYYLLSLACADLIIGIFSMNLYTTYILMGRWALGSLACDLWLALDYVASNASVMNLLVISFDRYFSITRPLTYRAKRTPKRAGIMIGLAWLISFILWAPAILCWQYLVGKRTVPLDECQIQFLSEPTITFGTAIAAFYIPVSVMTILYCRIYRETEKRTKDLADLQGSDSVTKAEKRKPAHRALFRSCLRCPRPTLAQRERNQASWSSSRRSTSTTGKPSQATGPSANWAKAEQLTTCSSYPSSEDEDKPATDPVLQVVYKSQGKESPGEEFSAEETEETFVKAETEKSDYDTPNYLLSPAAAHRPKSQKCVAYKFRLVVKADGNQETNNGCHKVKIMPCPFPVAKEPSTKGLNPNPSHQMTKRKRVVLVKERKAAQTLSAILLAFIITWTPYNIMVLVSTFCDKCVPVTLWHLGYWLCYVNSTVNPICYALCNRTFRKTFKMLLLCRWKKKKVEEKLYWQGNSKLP
Description: as §1, §2, §3, §4

M1 receptor = molecular target: T4, M1 receptor (Homo sapiens, UniProt P11229); assay: BRET real-time monitoring of Gq/11 activation via M1 in HEK293T/17 cells; assay type: cell-based; design: expressed in transfected cells; host or cells: HEK293T/17 cells, transient transfection; conditions: for Activation of Gαq/11 types: saturating concentration (100 μM; 1 mM for JB-12-2, JB-13-1); for Activation magnitude at G11, % of CBC / Activation magnitude at G15, % of CBC / Activation magnitude at Gq, % of CBC / Activation magnitude at Gα14, % of CBC: 100 μM
T4 sequence (P11229 1-460): T1 sequence (P11229 1-460)
Description: (§5) HE/K293T17 cells were obtained from The Global Bioresource Center ATCC (Manassas, VA, USA). Cells were grown in 100 mm petri dishes in Dulbecco’s modified Eagle’s medium (DMEM) supplemented with 10% fetal bovine serum (FBS), MEM non-essential amino acids, 1 mM sodium pyruvate, and antibiotics (100 units/ml penicillin and 100 μg/ml streptomycin) at 37 °C in a humidified incubator containing 5% CO2[41]. Transfection was performed according to Masuho et al.[41]. […] Gα14 subunit was co-transfected with Ric-8A chaperone (0.21 μg). Cells were cotransfected with a pcDNA3.1 construct encoding the catalytic subunit of pertussis toxin (PTX-S1) (0.21 μg) and constructs encoding Gα15, Gα14, Gα11, Gαq to ensure that the small BRET signals were not contaminated by the possible recruitment of endogenous Gαi/o proteins. The empty vector pcDNA3.1 was used to normalize the amount of DNA in each transfection.
(§6) To examine the activation of G-protein signalling in live cells, agonist-dependent cellular measurements of BRET between Venus-Gβ1γ2 and masGRK3ct-Nluc were performed as described by Masuho et al.[41]. […] Cells were harvested by centrifugation at 500×g for 5 min and were resuspended in BRET buffer. About 50,000 to 100,000 cells per well were distributed in 96-well flat-bottomed white microplates (Greiner Bio-One) in a volume of 25 µl. […] BRET measurements were made with a microplate reader (POLARstar Omega, BMG Labtech) equipped with two emission photomultiplier tubes, which enabled the detection of two emissions simultaneously with the highest possible resolution of 20 ms per data point. All measurements were performed at room temperature. […] The average baseline value (basal BRET ratio) recorded before stimulation of cells with an agonist was subtracted from the experimental BRET signal values to obtain the ΔBRET ratio.

M3 receptor = M3 receptor (Homo sapiens, UniProt P20309); assay: BRET real-time monitoring of G-protein activation via M3 in HEK293T/17 cells; assay type: cell-based; design: expressed in transfected cells; host or cells: HEK293T/17 cells, transient transfection; conditions: for Activation of Gαq/11 types: saturating concentration (100 μM; 1 mM for JB-12-2, JB-13-1); for Response at Gα15: saturating concentration
Description: as §5, §6

T2 sequence (P20309 whole entry): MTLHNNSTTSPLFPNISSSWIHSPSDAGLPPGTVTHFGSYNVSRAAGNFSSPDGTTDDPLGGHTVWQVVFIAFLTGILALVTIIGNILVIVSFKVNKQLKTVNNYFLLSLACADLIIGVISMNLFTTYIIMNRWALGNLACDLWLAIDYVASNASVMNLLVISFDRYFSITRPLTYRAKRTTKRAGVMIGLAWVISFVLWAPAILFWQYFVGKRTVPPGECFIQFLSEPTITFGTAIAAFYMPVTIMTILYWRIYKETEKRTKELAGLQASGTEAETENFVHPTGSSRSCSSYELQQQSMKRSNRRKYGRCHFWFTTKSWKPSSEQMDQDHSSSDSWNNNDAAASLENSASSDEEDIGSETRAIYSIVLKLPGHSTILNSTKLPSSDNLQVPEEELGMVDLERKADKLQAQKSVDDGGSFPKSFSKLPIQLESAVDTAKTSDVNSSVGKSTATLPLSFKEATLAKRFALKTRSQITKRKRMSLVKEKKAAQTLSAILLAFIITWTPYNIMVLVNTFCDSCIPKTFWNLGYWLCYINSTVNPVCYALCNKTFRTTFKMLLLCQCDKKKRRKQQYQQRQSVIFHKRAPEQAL
M3 receptor, sequence (P20309 whole entry): as above

SMILES	Ki (M1 muscarinic receptor)	Ki (M3 muscarinic receptor)	Ki (M5 muscarinic receptor)	Activation of Gαq/11 types (M1 receptor)	Activation of Gαq/11 types (M3 receptor)	Response at Gα15 (M3 receptor)	Ki (M5 muscarinic receptor; M5, competition with [3H]NMS, mean ± SD, three experiments, read-out: Binding affinity, negative logarithm of Ki (converted))	Activation magnitude at G11, % of CBC (M1 receptor)	Activation magnitude at G15, % of CBC (M1 receptor)	Activation magnitude at Gq, % of CBC (M1 receptor)	Activation magnitude at Gα14, % of CBC (M1 receptor)	Activation magnitude at Gq, % of CBC (M3 receptor; 100 μM)	Response at Gα14 (M3 receptor; 100 μM)
c1csc(C[N+]23CCC(CC2)CC3)c1 [JB-8A]	6.92 µM	14.8 µM	9.33 µM	did not activate any Gαq/11 type	did not activate any Gαq/11 type								
C[N+]1(Cc2cccs2)CCOCC1 [JB-12-2]	85.1 µM	93.3 µM	112 µM	activated all Gαq/11 types	activated all Gαq/11 types	activated							
COC(=O)C1=CCCN(Cc2cccs2)C1 [JB-13-1]	115 µM	355 µM		did not activate any Gαq/11 type	did not activate any Gαq/11 type		468 µM						
C[N+]1(Cc2cccs2)CC=CCC1 (stereo not shown) [JR-6, 1-methyl-1-[(thiophen-2-yl)methyl]-1,2,3,6-tetra hydropyridin-1-ium]						no response		approximately 50%	approximately 50%	approximately 50%	approx. 10%	approximately 30%	weak response
C[N+]1(Cc2ccc(Cl)s2)CC=CCC1 (stereo not shown) [PN-152, 1-[(5-chlorothiophen-2-yl)methyl]-1-methyl-1,2,3,6-tetrahydropyridin-1-ium]								approx. 30%	approx. 30%	approx. 30%	did not activate	10%	
